The text below walks through data of PubChem BioAssay (NCI).

Molecules are shown by their SMILES.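 Interpolation was linear, between the two tested concentrations surrounding the appropriate level; five concentrations were tested over 48 hours in 96-well plates. GI50 marks 50% less growth. Definition used: TGI = concentration required for complete inhibition of growth.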

Among the test systems are 786-0 renal; EKVX NSCLC; HCT-116 colon; HS 578T breast; HT29 colon; KM12 colon; LOX IMVI melanoma; OVCAR-3 ovarian; SK-MEL-5 melanoma; UO-31 renal.
Common to all, as to test: NCI-60 cell line screen, 48 h

In the case of `O=C(O)c1cn(C2CC2)c2cc(N3CCN(Cc4c(O)ccc5ccccc45)CC3)c(F)cc2c1=O`, the GI50 was 2.58 µM in the assay on 786-0 renal; above 100 µM in the assay on EKVX NSCLC; 2.37 µM with HCT-116 colon; 2.74 µM with HS 578T breast; 8.5 µM in the assay on HT29 colon; 9.18 µM in the assay with KM12 colon. Also, the GI50 was 4.67 µM in the assay with LOX IMVI melanoma, 3.4 µM in the assay on OVCAR-3 ovarian, 5.45 µM with SK-MEL-5 melanoma and 3.71 µM in the assay on UO-31 renal. Also, the TGI is 7.05 µM with 786-0 renal; above 100 µM with EKVX NSCLC; 6.17 µM in the assay on HCT-116 colon; 17.2 µM in the assay on HS 578T breast; above 100 µM in the assay with HT29 colon; above 100 µM in the assay with KM12 colon. Moreover, the TGI with LOX IMVI melanoma was above 100 µM; with OVCAR-3 ovarian, 22.6 µM; with SK-MEL-5 melanoma it was above 100 µM; with UO-31 renal it was above 100 µM.

As for `CN(C)C=Nc1c(I)cc(I)c(CCC(=O)O)c1I`, the GI50 in the assay on 786-0 renal, in the assay with EKVX NSCLC, in the assay with HCT-116 colon, in the assay with HS 578T breast, in the assay on HT29 colon and in the assay on KM12 colon was above 100 µM throughout. The GI50 in the assay on LOX IMVI melanoma, in the assay with OVCAR-3 ovarian, in the assay with SK-MEL-5 melanoma and in the assay with UO-31 renal was above 100 µM in each case. Further, the TGI with 786-0 renal, in the assay with EKVX NSCLC, in the assay on HCT-116 colon, with HS 578T breast, in the assay on HT29 colon and in the assay with KM12 colon was above 100 µM in each case. Further, the TGI in the assay with LOX IMVI melanoma, with OVCAR-3 ovarian, with SK-MEL-5 melanoma and with UO-31 renal was above 100 µM in each case.

Regarding `COc1cc2nc3cc([N+](=O)[O-])ccc3c(NCCNCC(C)O)c2cc1OC` (stereo unspecified), the GI50 in the assay with 786-0 renal is 1.23 µM; in the assay with EKVX NSCLC, 1.62 µM; in the assay on HCT-116 colon, 0.358 µM; in the assay on HS 578T breast, 1.45 µM; in the assay with HT29 colon, 0.317 µM; in the assay on KM12 colon, 0.619 µM. Moreover, the GI50 in the assay on LOX IMVI melanoma is 0.768 µM; in the assay on OVCAR-3 ovarian, 0.482 µM; in the assay on UO-31 renal it was 1.67 µM. Further, the TGI with 786-0 renal amounted to 3.6 µM; in the assay on EKVX NSCLC, 5.34 µM; in the assay with HCT-116 colon, 1.75 µM; in the assay with HS 578T breast it was 5.51 µM; in the assay on HT29 colon, 1.28 µM; in the assay on KM12 colon, 2.87 µM. Besides, the TGI was determined as 2.51 µM in the assay with LOX IMVI melanoma, 1.74 µM in the assay on OVCAR-3 ovarian and 5.84 µM with UO-31 renal.

Regarding `CN1C(=O)C2(c3ccccc31)C1CC3C(CO1)C1C2C3(CO)CN1C#N` (stereo unspecified), the TGI in the assay with 786-0 renal, in the assay on EKVX NSCLC, in the assay with HCT-116 colon, in the assay on HS 578T breast, in the assay on HT29 colon and in the assay on KM12 colon was above 100 µM throughout. For the same compound, the TGI in the assay with LOX IMVI melanoma, with OVCAR-3 ovarian, in the assay with SK-MEL-5 melanoma and in the assay with UO-31 renal was above 100 µM each time.

Turning to `CCCN(CCC)c1ccc(C=O)c(C)c1`, the GI50 in the assay with 786-0 renal was 43.9 µM; in the assay with EKVX NSCLC, 24.2 µM; with HCT-116 colon, 35 µM; with HS 578T breast, 39.7 µM; in the assay on HT29 colon, 33.5 µM; with KM12 colon, 44.7 µM. Also, the GI50 in the assay on LOX IMVI melanoma is 65 µM; in the assay on OVCAR-3 ovarian, 35.4 µM; with SK-MEL-5 melanoma, 21.2 µM; with UO-31 renal, 21.5 µM. Also, the TGI in the assay on 786-0 renal, with EKVX NSCLC, with HCT-116 colon, in the assay with HS 578T breast, with HT29 colon and with KM12 colon was above 100 µM throughout. In addition, the TGI was above 100 µM in the assay with LOX IMVI melanoma, above 100 µM with OVCAR-3 ovarian, above 61.9 µM with SK-MEL-5 melanoma and above 100 µM with UO-31 renal.

With `CCNCCNc1cc(-c2ccc(C(F)(F)F)cc2)c(C#N)c2nc3cc(Cl)c(Cl)cc3n12`, the GI50 in the assay on 786-0 renal is 1.53 µM; with EKVX NSCLC it was 1.59 µM; with HCT-116 colon, 0.177 µM; in the assay with HS 578T breast it was 1.81 µM; with HT29 colon it was 1.64 µM; in the assay on KM12 colon, 1.69 µM. For the same compound, the GI50 in the assay on LOX IMVI melanoma was 0.543 µM; in the assay on OVCAR-3 ovarian, 1.66 µM; in the assay on SK-MEL-5 melanoma, 1.67 µM; in the assay on UO-31 renal it was 1.65 µM. The TGI was found to be 3.02 µM with 786-0 renal; 3.13 µM in the assay with EKVX NSCLC; 0.338 µM in the assay with HCT-116 colon; 3.91 µM with HS 578T breast; 3.08 µM in the assay on HT29 colon; 3.2 µM in the assay with KM12 colon. Moreover, the TGI with LOX IMVI melanoma stood at 1.88 µM; in the assay on OVCAR-3 ovarian, 3.13 µM; in the assay on SK-MEL-5 melanoma, 3.04 µM; with UO-31 renal it was 3.25 µM.

For the compound `COc1ccc(OC)c(/C=C/c2ccnc3ccccc23)c1`, the TGI with 786-0 renal was 15.4 µM; in the assay on EKVX NSCLC, 10.7 µM; in the assay with HCT-116 colon, 8.09 µM; with HS 578T breast it was 5.72 µM; in the assay on HT29 colon it was 2.35 µM; in the assay with KM12 colon, 11.5 µM. In addition, the TGI in the assay on LOX IMVI melanoma turned out to be 14.4 µM; in the assay on OVCAR-3 ovarian, 1.76 µM; in the assay on SK-MEL-5 melanoma, 12.9 µM; in the assay on UO-31 renal, 6.99 µM.

For the compound `C=C1C(=O)C2=CC1CCC(=O)C1(C)CCC(OC(C)=O)C(C)(C)C1CC2O` (stereo unspecified), the TGI in the assay on 786-0 renal was above 37.7 µM; with EKVX NSCLC it was 18.9 µM; in the assay with HCT-116 colon, above 21.2 µM; in the assay on HS 578T breast, 20.4 µM; in the assay with HT29 colon, 10.1 µM; with KM12 colon, 15.9 µM. Besides, the TGI in the assay with LOX IMVI melanoma was above 22.5 µM; with OVCAR-3 ovarian it was 15.8 µM; in the assay with SK-MEL-5 melanoma, 6.09 µM; in the assay with UO-31 renal it was 5.38 µM.

Turning to `O=C1CC(N2C(=O)/C(=C/C(Cl)=C\c3ccc([N+](=O)[O-])cc3)SC2=S)C(=O)N1c1ccc(O)cc1` (stereo unspecified), the GI50 with 786-0 renal is 1.23 µM; with EKVX NSCLC it was 3.25 µM; in the assay on HCT-116 colon, 0.751 µM; in the assay on HS 578T breast it was 2.8 µM; in the assay with HT29 colon, 0.847 µM; in the assay on KM12 colon it was 1.83 µM. For the same compound, the GI50 in the assay with OVCAR-3 ovarian is 0.604 µM; in the assay with SK-MEL-5 melanoma, 1.92 µM; with UO-31 renal it was 1.35 µM. Also, the TGI in the assay with 786-0 renal stood at 4.81 µM; with EKVX NSCLC, 11.7 µM; in the assay on HCT-116 colon it was 2.14 µM; in the assay with HS 578T breast, 12.6 µM; in the assay with HT29 colon, 8.78 µM; with KM12 colon, 4.64 µM. Also, the TGI in the assay on OVCAR-3 ovarian turned out to be 1.96 µM; in the assay on SK-MEL-5 melanoma, 3.66 µM; with UO-31 renal, 2.79 µM.
